From patent US8044022B2, “Hyaluronic acid binding peptides enhance host defense against pathogenic bacteria” (priority 2005, dated 2011)

Key:
Acapsular GAS = experiment: Fluorometry binding of FITC-conjugated peptide to capsule-deficient GAS; set-up: species or system Group A Streptococcus
Description: (§1) Bacterial strains: GAS strain 950771 is a moderately encapsulated M3 clinical isolate from a child with post-varicella necrotizing fasciitis and sepsis, and an isogenic capsule deficient mutant, 188, derived from 950771. GAS were grown in Todd-Hewitt broth (Difco) to mid-exponential phase OD650 of 0.15 at 37° C. for all experiments. Commercially available trypticase-soy agar medium supplemented with 5% vol/vol sheep blood (BAP)(PML Microbiologicals, British Columbia, Canada) were used for all plate cultures. S. equi s(ATCC 53185) and P. multocida (ATCC 11039) were purchased from ATCC and cultured as recommended. Briefly, S. equi was cultured in Todd-Hewitt broth and S. uberis and P. multocida were cultured in Brain heart infusion (Difco) to OD 650 of 0.15 at 37° C. Quantitative cultures were performed in parallel with each experiment to verify the multiplicity of infection (MOI) of the inoculum.
(§2) Binding of HABP to HA and HA-encapsulated bacteria: To assess whether HABP are able to associate specifically with the GAS capsule, bacteria were cultured to mid-log phase, for maximal HA capsule expression, and incubated with either 10 μg/ml of FITC-conjugated HABP01 or SCRM, with purified HA at 1 mg/ml, as a positive control, or an isogenic mutant strain of GAS deficient in HA capsule, as a negative control. A GAS-specific antibody was used to control for the number of bacteria per well.

S. aureus strain PS80 = experiment: Mouse model of S. aureus surgical wound infection; format: in vivo, C57BL6 mice; conditions: 100 μg into wound at time of challenge with 10^2 CFU; 3 days later
Description: Bacterial strains. S. aureus strain PS80 (serotype 8) was obtained from the American Type Culture collection (#27700) and is a potent inducer of intraabdominal abscess formation. S. aureus COL is a methicillin resistant strain that produces a serotype 5 capsule. Staphylococci were cultivated for 24 h at 37° C. on Columbia agar (Difco Laboratories, Detroit, Mich.) supplemented with 2% NaCl.
Mouse model of S. aureus wound infection. Mice (C57BL6, male, 6-8 wk old) were obtained from Jackson Laboratories (Bar Harbor, Me.). Groups of mice (N=4/group/experiment) were anesthetized with 100 mg/kg ketamine and 10 mg/kg xylazine, their right thighs were shaved, and the surgical area was disinfected with iodine and 70% ethanol. An incision was made in the skin to expose the thigh muscle, and a 1-cm incision was made with a scalpel into the thigh muscle to the depth of the bone. The muscle was then closed with one 4-0 silk suture, and 10 μl of a S. aureus suspension ranging in dose from 10^2 to 10^4 CFU was introduced into the incision under the suture. The skin was closed with four additional Prolene sutures. The mice were euthanized at 3 days post-surgery. The wounded muscle tissue was excised, weighed (˜0.08 g), and homogenized in 1 ml of tryptic soy broth. Serial dilutions of the homogenates were plated in duplicate and results were expressed as CFU/g tissue. Peptides were administered to animals in two ways. For most experiments, HABPs were solubilized in PBS and administered with a pipet into the wound in a 10 μl volume following challenge with bacteria. A 100 μg dose was used for most experiments. For therapeutic studies, peptide was administered via a 1 ml tuberculin syringe fitted with a 25 gauge needle in a 0.25 ml volume injected into the thigh muscle containing the wound distal from the incision site.
Gross pathology and histologic analysis of host response. […] Histological examination of these wounds confirmed these findings. Muscle tissue was harvested from mice at designated intervals post-surgery, fixed in 10% buffered formalin, and mounted in paraffin; 5 to 6-μm sections were cut and stained with hematoxylin and eosin for microscopic examination. […] The cellular infiltrate was primarily comprised of PMNs and fibrin.
Statistical analyses. All animal experiments were performed at least two times and the data pooled. Comparison of S. aureus CFU/g tissue was made by the Welch modification of the unpaired Student t test (InStat, GraphPad Software, San Diego, Calif.).

[1] = system: Wild Type GAS (HA encapsulated); experiment: Fluorometry binding of FITC-conjugated peptide to encapsulated GAS; set-up: species or system Group A Streptococcus
Description: as §1, §2

[2] = fluorometry, HABP35 also confocal microscopy, data not shown

## HKSVSRHTSMRHSTM [SCRM, reference compound]
Acapsular GAS; [2]
  binding to unencapsulated GAS (in words): did not bind
Acapsular GAS; substrate in well: Acapsular GAS, 10 μg/ml FITC-conjugated peptide
  Relative binding: 1490 ± 40 relative fluorescent units
S. aureus strain PS80
  bacterial burden at the wound site compared with PBS: did not have this effect
[1]; [2]
  binding to encapsulated GAS (in words): did not bind
[1]; substrate in well: Wild Type GAS, 10 μg/ml FITC-conjugated peptide
  Relative binding: 1550 ± 30 relative fluorescent units
